Data as given in PubChem BioAssay (NCI).
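Five concentrations, 48 hours, 96-well plates. TGI denotes the concentration required for complete inhibition of growth.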

How the values were obtained:
Test in all cases: NCI-60 cell line screen, 48 h
EKVX NSCLC = test system: EKVX NSCLC
786-0 renal = test system: 786-0 renal
K-562 leukemia = test system: K-562 leukemia
TK-10 renal = test system: TK-10 renal
SK-MEL-2 melanoma = test system: SK-MEL-2 melanoma
OVCAR-3 ovarian = test system: OVCAR-3 ovarian
DMS 273 small cell lung = test system: DMS 273 small cell lung
RXF 393 renal = test system: RXF 393 renal
LOX IMVI melanoma = test system: LOX IMVI melanoma
RPMI-8226 leukemia = test system: RPMI-8226 leukemia
SW-620 colon = test system: SW-620 colon
KM20L2 colon = test system: KM20L2 colon
HOP-62 NSCLC = test system: HOP-62 NSCLC
HCT-15 colon = test system: HCT-15 colon
HOP-18 NSCLC = test system: HOP-18 NSCLC
KM12 colon = test system: KM12 colon
DMS 114 small cell lung = test system: DMS 114 small cell lung
SF-539 CNS = test system: SF-539 CNS
CCRF-CEM leukemia = test system: CCRF-CEM leukemia
NCI-H23 lung = test system: NCI-H23 lung
M14 melanoma = test system: M14 melanoma
A498 renal = test system: A498 renal
HT29 colon = test system: HT29 colon
HL-60(TB) leukemia = test system: HL-60(TB) leukemia
OVCAR-5 ovarian = test system: OVCAR-5 ovarian
MALME-3M melanoma = test system: MALME-3M melanoma
MOLT-4 leukemia = test system: MOLT-4 leukemia
SK-MEL-5 melanoma = test system: SK-MEL-5 melanoma
M19-MEL melanoma = test system: M19-MEL melanoma
HOP-92 NSCLC = test system: HOP-92 NSCLC
SF-268 CNS = test system: SF-268 CNS
DLD-1 colon = test system: DLD-1 colon
SN12C renal = test system: SN12C renal
UO-31 renal = test system: UO-31 renal
NCI-H460 lung = test system: NCI-H460 lung
SK-OV-3 ovarian = test system: SK-OV-3 ovarian
NCI-H226 lung = test system: NCI-H226 lung
SNB-75 CNS = test system: SNB-75 CNS
NCI-H522 lung = test system: NCI-H522 lung
ACHN renal = test system: ACHN renal
OVCAR-8 ovarian = test system: OVCAR-8 ovarian
LXFL 529 NSCLC = test system: LXFL 529 NSCLC
CAKI-1 renal = test system: CAKI-1 renal
SR leukemia = test system: SR leukemia
IGROV1 ovarian = test system: IGROV1 ovarian
UACC-257 melanoma = test system: UACC-257 melanoma
U251 CNS = test system: U251 CNS
SNB-19 CNS = test system: SNB-19 CNS
A549 NSCLC = test system: A549 NSCLC
HCC-2998 colon = test system: HCC-2998 colon
UACC-62 melanoma = test system: UACC-62 melanoma
SNB-78 CNS = test system: SNB-78 CNS
HCT-116 colon = test system: HCT-116 colon
XF 498 CNS = test system: XF 498 CNS
SF-295 CNS = test system: SF-295 CNS
OVCAR-4 ovarian = test system: OVCAR-4 ovarian
COLO 205 colon = test system: COLO 205 colon
RXF-631 renal = test system: RXF-631 renal
SK-MEL-28 melanoma = test system: SK-MEL-28 melanoma
PC-3 prostate = test system: PC-3 prostate
BT-549 breast = test system: BT-549 breast
MDA-N = test system: MDA-N
NCI/ADR-RES ovarian = test system: NCI/ADR-RES ovarian
T-47D breast = test system: T-47D breast
HS 578T breast = test system: HS 578T breast
MCF7 breast = test system: MCF7 breast
DU-145 prostate = test system: DU-145 prostate
MDA-MB-435 = test system: MDA-MB-435
MDA-MB-231 breast = test system: MDA-MB-231 breast

With `COC1=CC(=O)C(O)=C(CC2(C)C(C)CCC3(C)C2CCCC3(C)C)C1=O` (configuration not stated) the TGI (EKVX NSCLC) was 69.7 µM, the TGI (786-0 renal) was 19.1 µM and the TGI (K-562 leukemia) was > 100 µM. The TGI (TK-10 renal) was 37.2 µM, the TGI (SK-MEL-2 melanoma) was 15.5 µM and the TGI (OVCAR-3 ovarian) was 26.5 µM. For the same compound, the TGI (DMS 273 small cell lung) was 18.3 µM, the TGI (RXF 393 renal) was 7.79 µM and the TGI (LOX IMVI melanoma) was 23.2 µM. For the same compound, the TGI (RPMI-8226 leukemia) was 90.1 µM, the TGI (SW-620 colon) was 30.5 µM and the TGI (KM20L2 colon) was 13.2 µM. For the same compound, the TGI (HOP-62 NSCLC) was 10.7 µM, the TGI (HCT-15 colon) was 14.8 µM and the TGI (HOP-18 NSCLC) was 13 µM. The TGI (KM12 colon) was 27.3 µM, the TGI (DMS 114 small cell lung) was 8.99 µM and the TGI (SF-539 CNS) was 9.49 µM. It also gave a TGI (CCRF-CEM leukemia) of 11.5 µM, a TGI (NCI-H23 lung) of 8.05 µM and a TGI (M14 melanoma) of 7.65 µM. The TGI (A498 renal) was 22.1 µM, the TGI (HT29 colon) was 23.1 µM and the TGI (HL-60(TB) leukemia) was 8.53 µM. It also gave a TGI (OVCAR-5 ovarian) of 21.9 µM, a TGI (MALME-3M melanoma) of 13.4 µM and a TGI (MOLT-4 leukemia) of 18.5 µM. It also gave a TGI (SK-MEL-5 melanoma) of 12.2 µM, a TGI (M19-MEL melanoma) of 7.07 µM and a TGI (HOP-92 NSCLC) of 7.63 µM. For the same compound, the TGI (SF-268 CNS) was 25.4 µM, the TGI (DLD-1 colon) was 45.1 µM and the TGI (SN12C renal) was 15.3 µM. For the same compound, the TGI (UO-31 renal) was 17.2 µM, the TGI (NCI-H460 lung) was 10.6 µM and the TGI (SK-OV-3 ovarian) was > 100 µM. For the same compound, the TGI (NCI-H226 lung) was 9.91 µM, the TGI (SNB-75 CNS) was 19 µM and the TGI (NCI-H522 lung) was 13 µM. It also gave a TGI (ACHN renal) of 29.5 µM, a TGI (OVCAR-8 ovarian) of 26.2 µM and a TGI (LXFL 529 NSCLC) of 22.7 µM. The TGI (CAKI-1 renal) was 16.7 µM, the TGI (SR leukemia) was 12.8 µM and the TGI (IGROV1 ovarian) was 28.5 µM. The TGI (UACC-257 melanoma) was 21.9 µM, the TGI (U251 CNS) was 13.8 µM and the TGI (SNB-19 CNS) was 19.3 µM. The TGI (A549 NSCLC) was 11.6 µM, the TGI (HCC-2998 colon) was 17.8 µM and the TGI (UACC-62 melanoma) was 5.96 µM. For the same compound, the TGI (SNB-78 CNS) was > 100 µM, the TGI (HCT-116 colon) was 21.3 µM and the TGI (XF 498 CNS) was 22.4 µM. For the same compound, the TGI (SF-295 CNS) was 16.3 µM, the TGI (OVCAR-4 ovarian) was > 100 µM and the TGI (COLO 205 colon) was 19.2 µM. For the same compound, the TGI (RXF-631 renal) was > 100 µM and the TGI (SK-MEL-28 melanoma) was 18.2 µM.
In the case of `O=C(CC1(O)C(=O)Nc2c(Cl)cc(Cl)cc21)c1cccc([N+](=O)[O-])c1` (configuration not stated), the TGI (EKVX NSCLC) is reported as > 100 µM, the TGI (786-0 renal) is reported as > 59.9 µM and the TGI (K-562 leukemia) is reported as 70.2 µM. For the same compound, the TGI (TK-10 renal) was > 100 µM, the TGI (SK-MEL-2 melanoma) was > 86.3 µM and the TGI (PC-3 prostate) was > 100 µM. For the same compound, the TGI (OVCAR-3 ovarian) was 58.5 µM, the TGI (DMS 273 small cell lung) was > 100 µM and the TGI (RXF 393 renal) was 62.7 µM. The TGI (LOX IMVI melanoma) was 35.5 µM, the TGI (RPMI-8226 leukemia) was 58.2 µM and the TGI (SW-620 colon) was > 64.4 µM. The TGI (KM20L2 colon) was > 100 µM, the TGI (HOP-62 NSCLC) was 98.6 µM and the TGI (BT-549 breast) was > 100 µM. The TGI (HCT-15 colon) was > 100 µM, the TGI (MDA-N) was 34.6 µM and the TGI (HOP-18 NSCLC) was 98.6 µM. For the same compound, the TGI (KM12 colon) was > 100 µM, the TGI (DMS 114 small cell lung) was 43.3 µM and the TGI (SF-539 CNS) was 55.4 µM. For the same compound, the TGI (CCRF-CEM leukemia) was 48.2 µM, the TGI (NCI-H23 lung) was 52.3 µM and the TGI (M14 melanoma) was > 58 µM. The TGI (A498 renal) was 66.8 µM, the TGI (HT29 colon) was > 100 µM and the TGI (OVCAR-5 ovarian) was > 100 µM. It also gave a TGI (MALME-3M melanoma) of 35.9 µM, a TGI (MOLT-4 leukemia) of 51.5 µM and a TGI (SK-MEL-5 melanoma) of 30.9 µM. The TGI (NCI/ADR-RES ovarian) was > 100 µM, the TGI (M19-MEL melanoma) was 16.7 µM and the TGI (HOP-92 NSCLC) was 80.9 µM. The TGI (SF-268 CNS) was > 100 µM, the TGI (DLD-1 colon) was > 100 µM and the TGI (T-47D breast) was > 100 µM. For the same compound, the TGI (SN12C renal) was 58.1 µM, the TGI (HS 578T breast) was 94.9 µM and the TGI (UO-31 renal) was 60.1 µM. For the same compound, the TGI (NCI-H460 lung) was > 100 µM, the TGI (SK-OV-3 ovarian) was > 100 µM and the TGI (NCI-H226 lung) was > 77.5 µM. The TGI (SNB-75 CNS) was 68.2 µM, the TGI (MCF7 breast) was 33.3 µM and the TGI (NCI-H522 lung) was > 100 µM. The TGI (ACHN renal) was > 54.6 µM, the TGI (OVCAR-8 ovarian) was > 83.9 µM and the TGI (LXFL 529 NSCLC) was 30 µM. The TGI (CAKI-1 renal) was > 93.2 µM, the TGI (SR leukemia) was > 100 µM and the TGI (IGROV1 ovarian) was 55.8 µM. For the same compound, the TGI (UACC-257 melanoma) was 44.8 µM, the TGI (U251 CNS) was > 70.8 µM and the TGI (SNB-19 CNS) was > 100 µM. For the same compound, the TGI (A549 NSCLC) was 98.9 µM, the TGI (HCC-2998 colon) was > 70.4 µM and the TGI (UACC-62 melanoma) was 44.7 µM. The TGI (SNB-78 CNS) was > 100 µM, the TGI (HCT-116 colon) was 59 µM and the TGI (DU-145 prostate) was > 100 µM. For the same compound, the TGI (XF 498 CNS) was 37.3 µM, the TGI (SF-295 CNS) was > 100 µM and the TGI (OVCAR-4 ovarian) was 30 µM. For the same compound, the TGI (COLO 205 colon) was > 61.7 µM, the TGI (RXF-631 renal) was 92.1 µM and the TGI (MDA-MB-435) was 16.3 µM. For the same compound, the TGI (SK-MEL-28 melanoma) was > 80.6 µM and the TGI (MDA-MB-231 breast) was 64.7 µM.
